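GI50 is the concentration that inhibits growth by half. TGI denotes the concentration required for complete inhibition of growth.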
Key:
Assay in all cases: DTP human tumour cell line panel, 384-well format
KM12 colon = test system: KM12 colon
SK-MEL-28 melanoma = test system: SK-MEL-28 melanoma
CCRF-CEM leukemia = test system: CCRF-CEM leukemia
BT-549 breast = test system: BT-549 breast
T-47D breast = test system: T-47D breast
NCI/ADR-RES ovarian = test system: NCI/ADR-RES ovarian
UO-31 renal = test system: UO-31 renal
U251 glioblastoma = test system: U251 glioblastoma
OVCAR-4 ovarian = test system: OVCAR-4 ovarian
UACC-62 melanoma = test system: UACC-62 melanoma
DU-145 prostate = test system: DU-145 prostate
SK-OV-3 ovarian = test system: SK-OV-3 ovarian
UACC-257 melanoma = test system: UACC-257 melanoma
LOX IMVI melanoma = test system: LOX IMVI melanoma
NCI-H322M lung = test system: NCI-H322M lung
HCC-2998 colon = test system: HCC-2998 colon
HOP-62 NSCLC = test system: HOP-62 NSCLC
NCI-H226 lung = test system: NCI-H226 lung
SF-539 CNS = test system: SF-539 CNS
MOLT-4 leukemia = test system: MOLT-4 leukemia
SNB-19 CNS = test system: SNB-19 CNS
MCF7 breast = test system: MCF7 breast
SK-MEL-5 melanoma = test system: SK-MEL-5 melanoma
HOP-92 NSCLC = test system: HOP-92 NSCLC
HL-60(TB) leukemia = test system: HL-60(TB) leukemia
A498 renal = test system: A498 renal
COLO 205 colon = test system: COLO 205 colon
MDA-MB-435 melanoma = test system: MDA-MB-435 melanoma
NCI-H460 NSCLC = test system: NCI-H460 NSCLC
RXF 393 renal = test system: RXF 393 renal
OVCAR-3 ovarian = test system: OVCAR-3 ovarian
CAKI-1 renal = test system: CAKI-1 renal
SK-MEL-2 melanoma = test system: SK-MEL-2 melanoma
SF-295 CNS = test system: SF-295 CNS
OVCAR-5 ovarian = test system: OVCAR-5 ovarian
SN12C renal = test system: SN12C renal
TK-10 renal = test system: TK-10 renal
ACHN renal = test system: ACHN renal
MDA-MB-468 breast = test system: MDA-MB-468 breast
NCI-H522 lung = test system: NCI-H522 lung
K-562 leukemia = test system: K-562 leukemia
M14 melanoma = test system: M14 melanoma
SR leukemia = test system: SR leukemia
IGROV1 ovarian = test system: IGROV1 ovarian
NCI-H23 lung = test system: NCI-H23 lung
SF-268 CNS = test system: SF-268 CNS
PC-3 prostate = test system: PC-3 prostate
RPMI-8226 leukemia = test system: RPMI-8226 leukemia
OVCAR-8 ovarian = test system: OVCAR-8 ovarian
HCT-116 colon = test system: HCT-116 colon
SW-620 colon = test system: SW-620 colon
786-0 renal = test system: 786-0 renal
MALME-3M melanoma = test system: MALME-3M melanoma
A549 NSCLC = test system: A549 NSCLC
MDA-MB-231 breast = test system: MDA-MB-231 breast
HCT-15 colon = test system: HCT-15 colon
HT29 colon = test system: HT29 colon

COCCOCCOCCOCCOC(=O)OC[n+]1ccc(NC(=NCCCCCCOc2ccc(Cl)cc2)NC#N)cc1
GI50 (KM12 colon): < 10 nM | TGI (KM12 colon): < 10 nM | GI50 (SK-MEL-28 melanoma): < 10 nM | TGI (SK-MEL-28 melanoma): < 10 nM | GI50 (CCRF-CEM leukemia): < 10 nM | TGI (CCRF-CEM leukemia): < 10 nM | GI50 (BT-549 breast): < 10 nM | TGI (BT-549 breast): < 10 nM | GI50 (T-47D breast): < 10 nM | TGI (T-47D breast): < 10 nM | GI50 (NCI/ADR-RES ovarian): < 10 nM | TGI (NCI/ADR-RES ovarian): < 10 nM | GI50 (UO-31 renal): < 10 nM | TGI (UO-31 renal): < 10 nM | GI50 (U251 glioblastoma): < 10 nM | TGI (U251 glioblastoma): < 10 nM | GI50 (OVCAR-4 ovarian): < 10 nM | TGI (OVCAR-4 ovarian): < 10 nM | GI50 (UACC-62 melanoma): < 10 nM | TGI (UACC-62 melanoma): < 10 nM | GI50 (DU-145 prostate): < 10 nM | TGI (DU-145 prostate): 18.8 nM | GI50 (SK-OV-3 ovarian): < 10 nM | TGI (SK-OV-3 ovarian): < 10 nM | GI50 (UACC-257 melanoma): < 10 nM | TGI (UACC-257 melanoma): 15.8 nM | GI50 (LOX IMVI melanoma): < 10 nM | TGI (LOX IMVI melanoma): < 10 nM | GI50 (NCI-H322M lung): < 10 nM | TGI (NCI-H322M lung): < 10 nM | GI50 (HCC-2998 colon): < 10 nM | TGI (HCC-2998 colon): < 10 nM | GI50 (HOP-62 NSCLC): < 10 nM | TGI (HOP-62 NSCLC): < 10 nM | GI50 (NCI-H226 lung): 77.9 nM | TGI (NCI-H226 lung): 2960 nM | GI50 (SF-539 CNS): < 10 nM | TGI (SF-539 CNS): < 10 nM | GI50 (MOLT-4 leukemia): < 10 nM | TGI (MOLT-4 leukemia): < 10 nM | GI50 (SNB-19 CNS): < 10 nM | TGI (SNB-19 CNS): < 10 nM | GI50 (MCF7 breast): < 10 nM | TGI (MCF7 breast): < 10 nM | GI50 (SK-MEL-5 melanoma): < 10 nM | TGI (SK-MEL-5 melanoma): < 10 nM | GI50 (HOP-92 NSCLC): 21.6 nM | TGI (HOP-92 NSCLC): 41.5 nM | GI50 (HL-60(TB) leukemia): < 10 nM | TGI (HL-60(TB) leukemia): < 10 nM | GI50 (A498 renal): 25.3 nM | TGI (A498 renal): 58.6 nM | GI50 (COLO 205 colon): < 10 nM | TGI (COLO 205 colon): < 10 nM | GI50 (MDA-MB-435 melanoma): < 10 nM | TGI (MDA-MB-435 melanoma): < 10 nM | GI50 (NCI-H460 NSCLC): < 10 nM | TGI (NCI-H460 NSCLC): < 10 nM | GI50 (RXF 393 renal): < 10 nM | TGI (RXF 393 renal): < 10 nM | GI50 (OVCAR-3 ovarian): < 10 nM | TGI (OVCAR-3 ovarian): < 10 nM | GI50 (CAKI-1 renal): < 10 nM | TGI (CAKI-1 renal): < 10 nM | GI50 (SK-MEL-2 melanoma): < 10 nM | TGI (SK-MEL-2 melanoma): < 10 nM | GI50 (SF-295 CNS): < 10 nM | TGI (SF-295 CNS): < 10 nM | GI50 (OVCAR-5 ovarian): < 10 nM | TGI (OVCAR-5 ovarian): < 10 nM | GI50 (SN12C renal): < 10 nM | TGI (SN12C renal): < 10 nM | GI50 (TK-10 renal): < 10 nM | TGI (TK-10 renal): < 10 nM | GI50 (ACHN renal): < 10 nM | TGI (ACHN renal): < 10 nM | GI50 (MDA-MB-468 breast): < 10 nM | TGI (MDA-MB-468 breast): < 10 nM | GI50 (NCI-H522 lung): < 10 nM | TGI (NCI-H522 lung): < 10 nM | GI50 (K-562 leukemia): < 10 nM | TGI (K-562 leukemia): < 10 nM | GI50 (M14 melanoma): < 10 nM | TGI (M14 melanoma): 18.9 nM | GI50 (SR leukemia): 18.8 nM | TGI (SR leukemia): 33.3 nM | GI50 (IGROV1 ovarian): < 10 nM | TGI (IGROV1 ovarian): < 10 nM | GI50 (NCI-H23 lung): < 10 nM | TGI (NCI-H23 lung): < 10 nM | GI50 (SF-268 CNS): < 10 nM | TGI (SF-268 CNS): < 10 nM | GI50 (PC-3 prostate): < 10 nM | TGI (PC-3 prostate): < 10 nM | GI50 (RPMI-8226 leukemia): < 10 nM | TGI (RPMI-8226 leukemia): < 10 nM | GI50 (OVCAR-8 ovarian): < 10 nM | TGI (OVCAR-8 ovarian): < 10 nM | GI50 (HCT-116 colon): < 10 nM | TGI (HCT-116 colon): < 10 nM | GI50 (SW-620 colon): < 10 nM | TGI (SW-620 colon): < 10 nM | GI50 ([…]-0 renal): < 10 nM | TGI (786-0 renal): < 10 nM | GI50 (MALME-3M melanoma): 25.3 nM | TGI (MALME-3M melanoma): 46.4 nM | GI50 (A549 NSCLC): < 10 nM | TGI (A549 NSCLC): 19.4 nM | GI50 (MDA-MB-231 breast): 15.2 nM | TGI (MDA-MB-231 breast): 30.1 nM | GI50 (HCT-15 colon): < 10 nM | TGI (HCT-15 colon): < 10 nM | GI50 (HT29 colon): < 10 nM | TGI (HT29 colon): < 10 nM

— PubChem BioAssay (NCI)
